Reference: a melting point compilation (Tetko et al.; mined from patent text by program, amines drawn as free bases though some values may be those of a salt)

melting point [°C]	Compound
157 to 160	CCN1C(C)CN(CC(=O)NC2(c3cc4ccccc4o3)C(=O)Nc3cc(Cl)cc(Cl)c32)CC1C (single isomer, unassigned; (+))
221 to 223	OCc1cc2cccc(Nc3cc(-c4ccc(C(F)(F)F)cc4)ncn3)c2[nH]1
78 to 80	Cc1cc(CCCCCOc2ccc(-c3nccs3)cc2)on1
123 to 127	Cc1ccc(S(=O)(=O)ON=C2CC(c3ccccc3)c3ccccc32)cc1 (stereo not given)
81.5 to 83	CN(N=C(Cl)c1c(F)cccc1F)S(=O)(=O)c1ccccc1
207 to 213	CN1C(=O)CN(c2ccccc2)NC1=O
217 to 220	COC(=O)[C@H]1CC[C@H](NC(=O)c2cc(-c3ccc(C#N)cc3)nn(Cc3ccccc3)c2=O)CC1
227 to 231	COc1cccc2c(=O)[nH]c(-c3ccccc3)cc12
141 to 143	CCc1n[nH]c(CC)c1Cc1cc(C#N)cc(C#N)c1
78 to 79	COc1cc2c(cc1OCc1ccccc1)CCN(Cc1cccc(O[Si](C(C)C)(C(C)C)C(C)C)c1)C2
139	Nc1cc(OCC(O)CO)ccc1[N+](=O)[O-] (stereo not given)
120 to 122	COCCOCCOCCOc1ccc(-c2nc(C(=O)Nc3nccs3)c(-c3ccc(Cl)cc3)[nH]2)cc1
178	Cc1noc(-c2c3cccc(-c4ccc(Cl)cc4Cl)c3nn2C)n1
122	CCCCNc1cncc(C(=NCCc2ccccc2Cl)NC#N)c1
123 to 125	COc1cc2c(cc1OCc1ccccc1)C(c1ccccc1)NCC2 (stereo not given)
114 to 115	N#Cc1[nH]ccc1-c1ccccc1Cl
> 250	O=S(=O)(c1cccs1)N1CCc2[nH]c3c(cnc4cc(Cl)ccc43)c2C1
89.4	CCC[C@H]1CC[C@H](CCc2ccc(-c3ccc(C#N)cc3F)cc2)CC1
222	CCn1nc(C(C)C)c2c1C(=NC#N)NCC(c1ccccc1)=N2
110 to 113	COC1CCC(C2=C(Cl)C(=O)c3ccccc3C2=O)CC1 (stereo not given)
99 to 100	CC(C)NC(=O)Oc1ccc2c(N(C)CCN3CCOCC3)noc2c1
96 to 100	CCN(CC)C(=O)n1ccc(S(=O)(=O)c2c(C)cc(Br)cc2C)n1

melting point [°C]	Compound
94 to 96	COC(=O)CC(Sc1cc(C(C)(C)C)c(O)c(C(C)(C)C)c1)C(=O)OC (stereo not given)
54 to 67	c1ccc(Cn2nnnc2-c2ccccc2)cc1
65 to 68	CC(C)CCOC(=O)COc1cc(F)ccc1C(=O)NCc1cccc([N+](=O)[O-])c1
179 to 180	CCCC(=O)c1cnc2c(C(=O)O)cccc2c1Nc1ccccc1C
137 to 139	CNC(=O)c1c(SC)c2cc(OC)ccc2n1C
239 to 241	CCc1cccc2oc(C(=O)Nc3ccc(-c4ccc(S(=O)(=O)NC(C(=O)O)C(C)C)cc4)cc3)c(C)c12 (stereo not given)
195 to 199	COC(=O)c1cscc1NC(=O)NCCN1CCN(c2ccccc2OC)CC1
91 to 93.5	CN1CCCCC1CCc1ccccc1NC(=O)c1ccc(OC(C)(C)C)cc1 (stereo not given)
202 to 204	CCC(=O)Nc1cnn2cnc3ccccc3c12
147 to 149	CCOC(=O)N1CCN(c2c(F)cc([N+](=O)[O-])c(F)c2CO)CC1
214 to 217	COC(=O)COc1ccc(NC(=O)NC(=O)c2ccc(C#N)cc2)cc1
164 to 165	CC(C)(C)c1ccc(C=NOCCOc2ccc(C(=O)O)c(OCc3ccc(C(F)(F)F)cc3)c2)cc1
89	CCOC(=O)C1(S(=O)(=O)c2ccc(OCc3ccccc3)cc2)CCN(Cc2ccccc2)CC1
72 to 76	OC(COc1ccc(-c2ccccc2I)cc1)CN1CCCC1 (stereo not given)
205 to 206	C=CCc1c(O)ccc2c1ccc(=O)n2CC=C
175	COc1ccc2c(c1OC)CC[C@H]2NC(C)=O
129 to 131	COc1cc2c(cc1OCCCN1CCC(c3[nH]cc4cc(F)ccc34)CC1)CCCC2=O
71.5 to 72.5	CC1CC(=O)CCC1c1ccccc1 (stereo not given)
112 to 114	CCCCCCCCCCCCCCCCC1=C(c2cn(C)c3ccccc23)C(=O)NC1=O
217 to 219	COc1ccc2c(c1)C(=O)C(=Cc1c[nH]c3ccccc13)CO2
230 to 232	CC(C)(C)OC(=O)c1cccc(NC(N)=O)c1
291	CC(=O)Nc1cccc2c1C(=O)c1c-2n[nH]c1-c1ccc(N2CCCCC2)cc1

melting point [°C]	Compound
130 to 132	Cc1cc(C2CCN(C(=O)OC(C)(C)C)CC2)cnc1COc1ccc(S(C)(=O)=O)cc1
130 to 131	Cc1nc(NCCSCc2csc(CN(C)C)n2)[nH]c(=O)c1Cc1cccnc1
91	O=C(O)Cc1ccc(C#CC#Cc2ccc(CC(=O)O)cc2)cc1
142 to 144	CC(C)c1cccc(-c2c(-c3ccc4nn(C)cc4c3)nsc2NC(=O)[C@@H]2C[C@H]2C)n1
120 to 122	COc1ccc(-c2nc(CNC(C)(C)C)nc3cc(OC)c(OC)cc23)cc1OC
82 to 84	COc1ccc(C(=O)NCCc2cccc(OCc3ccccc3)c2)cc1OC
88 to 94	CCOc1cc2ncc(C#N)c(Nc3ccc(Sc4ccccc4)c(Cl)c3)c2cc1OCC
116 to 118	ClCc1cccc2c(-c3ccc(Br)cc3)nccc12
53 to 55	O=C(CN(C(=O)C(=O)N(CC(=O)OCc1ccccc1)S(=O)(=O)C(F)(F)F)S(=O)(=O)C(F)(F)F)OCc1ccccc1
141 to 143	Cc1ccccc1C(Oc1cc(OCc2ccoc2)ccc1C#N)C(=O)O (racemic)
65 to 67	O=C1c2ccccc2OS(=O)N1SC(Cl)(Cl)Cl (stereo not given)
71 to 72	Cc1ccc(S(=O)(=O)c2ccc(C)cc2CC(Cl)(Cl)C#N)c(CC(Cl)(Cl)C#N)c1
87 to 90	CCCCCCCCCCOc1cccc(C(=O)N(CC(=O)O)CC(=O)O)c1
161 to 162	COCn1ccnc1C(O)(c1ccccc1)c1ccc(Cl)cc1Cl (stereo not given)
74 to 75	CCOC(=O)c1nn(-c2ccc(C)cc2)nc1-c1ccccc1
223 to 224	CCNC(=O)c1cc2c(nc(C)n2C)c2c1CCC1(Cc3ccccc3C1)N2
151 to 152	COCN1c2cc(C(=O)OC)ccc2Sc2nccnc21
150 to 155	CC(CCC(=O)NCCS(=O)(=O)O)C1CCC2C3C(O)CC4CC(NC(=O)CNC(=O)OC(C)(C)C)CCC4(C)C3CC(O)C12C (stereo not given)
123 to 125	C=CCc1c(F)ccc2c3c([nH]c12)C(CC)(CC(=O)O)OCC3 (stereo not given)
172 to 175	O=C(O)CCCNS(=O)(=O)c1ccc(NC(=O)Nc2ccc(C(F)(F)F)cc2)cc1
77.5 to 79	COc1ccc2c(c1)c1c(n2CCc2noc(-c3ccccc3)n2)CCN(C)C1
189 to 191	CCOC(=O)c1cn(C)c2cc(-c3ccccc3)sc2c1=O

melting point [°C]	Compound
80 to 82.5	CCOc1ccccc1O[C@@H](c1ccccc1)[C@@H](CO[Si](C)(C)C)OS(C)(=O)=O (racemic)
94 to 96	O=C1COc2ccccc2C(=O)C1=CNc1ccccc1
131	C[C@@H](CO)Oc1cc(Oc2ccc(C(=O)N3CCC3)cc2)cc(C(=O)Nc2ccn(C)n2)c1
88	CCCC(CC(=O)Nc1ccccc1)(OC)OC
192 to 193	CS(=O)(=O)Nc1cc2occ(N3CCCC3=O)c(=O)c2cc1Oc1ccccc1
253 to 255	O=C(O)COc1c[nH]cc(Cl)c1=O
73.5 to 74.5	Cc1nc(C)c(C(=O)c2ccoc2)o1
88	CC(C#N)Oc1cccc(CN2C(=O)c3cccc(NC(=O)c4ccc(Cl)s4)c3C2=O)c1 (stereo not given)
158 to 160	CSC(CC(=O)c1cc(Cl)c(C)c(Cl)c1)C(=O)O (stereo not given)
182 to 183	CC(C)(C)OC(=O)NCC(=O)Nc1cccc(NC(=N)N2CCCC2)c1
152 to 154	CC(=O)OC1CC(=O)N1 (stereo not given)
238 to 240	COc1ccc(-n2c(=O)n(OCc3ccccc3)c(=O)c3cc(F)c(Cl)nc32)cc1
118 to 120	CN1CCN(C(c2ccccc2)c2ccccc2)CC1(C)Cc1ccc2c(c1)OCCO2 (stereo not given)
82 to 84	CCOC(=O)N[C@@H]1Cc2ccccc2[C@H]1Cl (relative stereo)
184	CC(=O)Nc1ccc(C(=O)CBr)cc1F
112 to 114	CC(=O)c1c(O)cccc1OCC(O)COc1ccc(Cl)cc1 (stereo not given)
112 to 114	CC(C)(C)OC(=O)N1CC[C@H](Oc2ccc([N+](=O)[O-])cc2)C1
123 to 124	CC1CCCN(Cc2cccc(OCCCCNc3nnc(N)s3)c2)C1 (stereo not given)
201 to 202	O=C(OCc1ccccc1)N1CCc2c(sc3nc(CN4C(=O)CCC4=O)c(Cl)c(-c4ccc(C(F)(F)F)cc4)c23)C1
143 to 145	Clc1cccc(Oc2nnc(Cc3ccncc3)c3ccccc23)c1
44 to 44.5	N#Cc1ccc(C(=O)Cl)c(CCl)c1
192 to 194	CCOC(=O)c1c(Nc2cccc(SC)c2)n[nH]c1C

Compound	melting point [°C]
O=C(NC(=O)c1cccc(C(F)(F)F)c1)NC1CN2CCC1CC2 (stereo not given)	197 to 200
COP(=S)(OC)Oc1nsc(-c2ccccc2)c1C#N	40
CNC(=O)Oc1ccc2c(ccn2Cc2ccncc2)c1	170
CCOC(=O)c1c(C(F)(F)F)nc(C(F)F)c(C(=O)OC)c1N1CC1	92 to 95
O=Cc1ncn2c1[C@@H]1CCCN1C(=O)c1ccccc1-2	206 to 208
N#Cc1nn(-c2c(Cl)cc(C(F)(F)F)cc2Cl)c(CO)c1SC(F)(F)F	118
CCOC(=O)Nc1ccc(OC(=O)NC)cc1C	153 to 155
ClCc1cccc2c1CCCC2	51 to 52
Fc1ccc(-c2ccc(-c3cn([C@H]4CN5CCC4CC5)nn3)cc2)cn1	181
CN1Cc2c(C#CC(C)(C)O)ncn2-c2cccc(Cl)c2C1=O	194 to 195
C=C1CC2(CC)C(=O)CC(O)C2C2CCC3=CC(=O)CCC3C12 (stereo not given)	228
CC12C=CC(=O)C(N)=C1CCC1C2CCC2(C)C(=O)CCC12 (stereo not given)	162 to 169
